From patent publication US20190369111A1, “MOLECULAR KINETICS EVALUATION METHOD AND SCREENING METHOD” (Tokyo University of Science Foundation, priority 2016, published 2019) come the findings set out here.

The structures appear in SMILES notation.

For the series, the target named is T1, wild-type p53 protein (Mus musculus, UniProt P02340).
T1 construct: administered intraperitoneally to C57BL/6J wild-type mice; from tissue; host or cells: C57BL/6J wild-type mice: liver, kidneys, spleen, heart
Nature of the series: Degradation of wild-type p53 protein in each tissue of mouse after administration, Western blot analysis. It counts as in vivo. The procedure:
TIBC-CANDDY_MLN was dissolved in DMSO immediately before administration, and then dissolved in corn oil (Code No. 25606-55, Nacalai Tesque) so that the concentration of DMSO was 10 vol %, and then a dose of 50 mg/kg body weight or 100 mg/kg body weight was administered intraperitoneally to C57BL/6J wild-type mice (7 to 8 weeks old, male) (CLEA Japan, Inc.) (n=3). As a control, an injection carrier (corn oil containing 10 vol % DMSO) was used. The mice were kept under an environment of ad libitum access to food and water. The mice were dissected under deep anesthesia by Somnopentyl (Kyoritsu Seiyaku Corporation) 48 hours after administration. Abdominal section was performed, and then the liver, kidneys, spleen, and heart were sequentially extracted and flash frozen in liquid nitrogen. Each tissue frozen in liquid nitrogen was stored in a deep freezer at −80° C.
The frozen tissues (spleen: 0.02 g, other tissues: 0.04 g) were each frozen and triturated, and then 1×TKM tissue lysis buffer (50 mM triethanolamine (pH 7.8), 50 mM KCl, 5 mM MgCl2, 0.25 M sucrose, 1 mM PMSF, protein inhibitors cocktail-EDTA free (Code No. 03969-21, Nacalai Tesque), 1 mM DTT, and 5 μL/mL recombinant RNase inhibitor (40 U/μL, Cat No. 2313A, Lot No. K8402DA, TAKARA Bio)) were added in an amount of 490 μL for the spleen and 980 μL for the others, and dissolved by rotation for 15 minutes (1 rpm, 25° C.). Then, the resultant product was subjected to centrifugation (at 3000 rpm×15 minutes, 4° C.), and the supernatants (each tissue extract) was collected. The concentration of proteins in each tissue extract was quantified with a spectrophotometer using each tissue extract that had been diluted 20 times using DEPC-treated water.
Each tissue extract collected was subjected to Western blot analysis. An SDS-PAGE gel was prepared using TGX™ FastCast™ Acrylamide Kit, 12% (Bio-Rad). Electrophoresis samples were prepared in a 6×SDS-PAGE sample buffer (62.5 mM Tris-HCl pH 6.8, 2% SDS, 5% 2-mercaptoethanol, 10% glycerol, 0.25% BPB), and placed on a heat block at 95° C. for 5 minutes. The electrophoresis samples prepared were applied at 50 μg/well for detecting GAPDH, and at 100 μg/well for other detection. Electrophoresis was performed at 160 V for 60 minutes (electrophoresis buffer; 195 mM glycine, 25 mM Tris).
After electrophoresis, proteins were transferred to a PVDF membrane (Immobion™-P, Millipore) under conditions of 100 V and 1.5 hours using a tank-type blotting device and a transfer buffer (25 mM Tris-HCl, 195 mM glycine, 0.01% SDS, 15% methanol). The membrane was split into two at the position of a 25 kDa marker. The membrane after transfer was shaken and blocked in 5% skim milk/TBS-T (100 mM Tris-HCl, 150 mM NaCl, 0.1% Tween-20, pH 7.6) at room temperature for 30 minutes. After blocking, a primary antibody reaction was performed in 5% skim milk/TBS-T. As the primary antibody, an anti-p53 antibody (MAB1355, R&D Systems, Inc., diluted 500 times), an anti-MDM2 antibody (sc-965, SantaCruz, diluted 500 times), and an anti-GAPDH antibody (sc-32233, SantaCruz, diluted 20000 times) were used. The membrane was shaken at room temperature for 60 minutes, and then the membrane was washed with TBS-T for 5 minutes. […] Subsequently, the membrane was treated with a chemiluminescence reagent Immobilon™ Western (Millipore), and then chemiluminescence was detected using a lumino image analyzer LAS-3000 (FUJIFILM Corporation). Detected bands were quantified with an image processing software ImageJ (NIH).
For orientation: A western blot detects proteins with antibodies after separation by electrophoresis.

T1 sequence (P02340 whole entry): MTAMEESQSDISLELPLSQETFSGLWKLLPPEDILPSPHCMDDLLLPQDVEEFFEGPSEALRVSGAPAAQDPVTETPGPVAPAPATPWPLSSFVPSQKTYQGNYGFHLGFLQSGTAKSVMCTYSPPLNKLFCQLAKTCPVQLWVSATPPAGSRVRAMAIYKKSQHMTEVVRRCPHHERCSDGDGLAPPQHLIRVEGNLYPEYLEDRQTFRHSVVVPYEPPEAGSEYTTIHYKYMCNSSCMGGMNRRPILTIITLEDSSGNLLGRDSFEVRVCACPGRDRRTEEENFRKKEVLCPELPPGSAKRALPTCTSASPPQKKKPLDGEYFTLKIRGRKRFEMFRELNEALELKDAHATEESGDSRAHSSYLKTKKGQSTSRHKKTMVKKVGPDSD

Turning to `CC(C)C[C@H](NC(=O)CNC(=O)c1cc(Cl)ccc1Cl)C(=O)NCCCCCCC(=O)Nc1ccc(C(=O)/C=C/c2ccc(I)cc2)cc1` [TIBC-CANDDY_MLN], the “amount of wild-type p53 protein in heart” value (intraperitoneal 50 or 100 mg/kg body weight, 48 hours after administration, heart) is reported as “reduced in a concentration dependent manner”. Besides, the “amount of wild-type p53 protein in kidneys” value (intraperitoneal 50 or 100 mg/kg body weight, 48 hours after administration, kidneys) was “reduction of the target was not found”. Further, the “amount of wild-type p53 protein in spleen” value (intraperitoneal 50 or 100 mg/kg body weight, 48 hours after administration, spleen) was “reduced in a concentration dependent manner”. Also, the “amount of wild-type p53 protein in liver” value (intraperitoneal, only at a dose of 100 mg/kg body weight, 48 hours after administration, liver) is reported as “reduced slightly”. Further, the “transfer property to tissues (molecular kinetics)” value (suggested from p53 and MDM2 degradation in tissues) was “showed a higher transfer property to the heart, liver, and spleen as compared with the kidneys”.
